Data from patent US9557338B2 (SIGNAL PHARMACEUTICALS, LLC, priority 2012, dated 2017).

Experiments:
Type in all cases: cell-based
Phospho-PRAS40(T246) = assay: Luminex multiplex assay, Phospho-PRAS40(T246); settings: PC3 cell line; read-out: Luminex PRAS40
Excerpt: (§1) Determination of Phospho-GSK3β(S9), Phospho-PRAS40(T246) and Phospho-4E-BP1(T46) and the Effect of Compound 1 or Rapamycin.
(§2) The multiplex Luminex assay format differs from conventional enzyme-linked immunosorbent assay (ELISA) in that the multiplex capture antibody is attached to a polystyrene bead whereas the ELISA capture antibody is attached to the microplate well. The use of the suspension bead-based technology enables the multiplexing capabilities of the Luminex assays. The xMAP® technology uses 5.6 micron polystyrene microspheres, which are internally dyed with red and infrared fluorophores of differing intensities. Each bead is given a unique number, or bead region, allowing differentiation of one bead from another. Beads covalently bound to different specific antibodies can be mixed in the same assay, utilizing a 96-well microplate format. At the completion of the sandwich immunoassay, beads can be read, using the Luminex 100™ or Luminex 200 detection system, in single-file by dual lasers for classification and quantification of each analyte. The Akt-Pathway Phospho 5-plex kit used was custom made and includes the ability to simultaneously measure p-GSK3β (S9), p-PRAS40(T246), and p-4E-BP1(T46).
(§3) Cells were plated at the required density. The cells were treated with either Compound 1 or rapamycin over a range of concentrations for 1 hour in 5% CO2 at 37° C. Compound 1 and rapamycin were used at the same concentrations as for the proliferation assay. As for the cell proliferation assay, a reference standard was included in the assay for PC3 cells and the coefficient of variation for assay of p-GSK3β(S9) was 37.8% (n=30), p-PRAS40(T246) was 27.8% (n=30) and for p4E-BP1(T46) was 13.5% (n=4). For three cell lines (HCT-116, MDA-MB-231 and HT29) in the assay for phosphorylation of GSK3β, PRAS40 and 4E-BP1, IGF-I stimulation (500 ng/mL, recombinant human IGF-I) for the last 10 min of incubation was used. The media was aspirated from the wells and the plate was placed on ice. Then 35 μL of Lysis Buffer was added to each well and incubated on ice for at least 30 minutes. During the incubation, the standard curve for each phosphoprotein was prepared. The standards provided were reconstituted and serial dilutions were prepared according to the manufacturer's instructions. At the end of the cell lysis step, […] of the lysate was transferred to a V-bottom plate and spun at 4° C. at 2000 rpm for 5 minutes. Both the 1× Luminex bead and 1× detector antibody solutions were prepared during this time. The 1× bead solution was vortexed and 25 μL was added into each well of a black round bottom plate. Then 50 μL of the 1× detector antibody was added to each well. Fifty microliters (50 μL) of the prepared standards were added to the designated wells. Then 25 μL of the assay diluent was added to each well designated for the compound-treated cell lysates. At the end of the spin, 25 μL of cell lysate was added to the corresponding wells of the black assay plate. The assay plate was covered with the white plate lid and incubated for 3 hours at room temperature on an orbital shaker.
(§4) Approximately 10-15 minutes prior to the end of the first incubation, the secondary antibody solution was prepared according to the vendor's protocol. Goat anti-rabbit R-phycoerythrin red fluorescent protein (RPE) supplied as a 10× concentrate was diluted to generate a 1× goat anti-rabbit RPE stock. The 96-well filter plate was pre-wet with 200 μL of 1× Working wash solution. At the end of the 3 hour incubation, a multichannel pipette was used to transfer the entire contents from each assay well into the wells of the filter plate. The liquid from the wells was removed by aspiration with the vacuum manifold. Then 200 μL of 1× Working wash solution was added into each well. The wash solution was aspirated using the vacuum manifold after 15-30 seconds. This wash step was repeated one time. The bottom of the plate was blotted on clean paper towels to remove residual liquid. […]

Phospho-GSK3β(S9) = assay: Luminex multiplex assay, Phospho-GSK3β(S9); settings: PC3 cell line; read-out: Luminex GSK-3β
Excerpt: as §1, §2, §3, §4

p70S6K = assay: Luminex multiplex assay, p70S6K phosphorylation in cell lysates; settings: PC3 cell line; read-out: Luminex p70S6K
Excerpt: as §2, §3, §4

| Compound | IC50 (Phospho-PRAS40(T246)) [µM] | IC50 (Phospho-GSK3β(S9)) [µM] | IC50 (p70S6K) [µM] |
| --- | --- | --- | --- |
| CC(C)(O)c1ccc(-c2cnc3c(n2)N(CC2CC2)CC(=O)N3)cn1 [C-17] | 2.9 | > 5 | 0.549 |
| O=C1CN(CCC2CCOCC2)c2nc(-c3ccc(-c4nnc[nH]4)c(F)c3)cnc2N1 [C-18] | 0.027 | 0.037 | 0.004 |
| COCCN1C(=O)CNc2ncc(-c3ccc(-c4nc[nH]n4)c(F)c3C)nc21 [C-19] | 0.053 | 0.156 | 0.006 |
| O=C1CNc2ncc(-c3ccc(-c4nnc[nH]4)c(F)c3)nc2N1CCC1CCOCC1 [C-20] | > 0.05 | > 0.05 | 0.006 |
| COC1CCC(CN2CC(=O)Nc3ncc(-c4ccc(C(C)(C)O)nc4)nc32)C1 (stereo not drawn) [C-21] | 0.795 | 1.68 | 0.105 |
| COC1CCC(CN2CC(=O)Nc3ncc(-c4ccc(C(C)(C)O)nc4)nc32)C1 (stereo not drawn) [C-22] | 1.14 | 2.98 | 0.086 |
| COC1CCC(N2CC(=O)Nc3ncc(-c4ccc(C(C)(C)O)nc4)nc32)C1 (stereo not drawn) [C-23] | 1.45 | 1.77 | 0.207 |
| CO[C@H]1CC[C@H](N2CC(=O)Nc3ncc(-c4ccc(C(C)(C)O)nc4)nc32)C1 [C-24] | 3.66 | > 5 | 0.843 |
| CO[C@@H]1CC[C@@H](CN2CC(=O)Nc3ncc(-c4ccc(C(C)(C)O)nc4)nc32)C1 [C-25] | 0.705 | 1.78 | 0.094 |
| CO[C@H]1CC[C@H](CN2CC(=O)Nc3ncc(-c4ccc(C(C)(C)O)nc4)nc32)C1 [C-26] | 0.498 | 1.43 | 0.104 |
| COCCN1C(=O)CNc2ncc(-c3ccc(-c4nnc[nH]4)c(F)c3)nc21 [C-27] | 0.027 | 0.032 | 0.008 |
| CO[C@@H]1CC[C@H](N2CC(=O)Nc3ncc(-c4ccc(C(C)(C)O)nc4)nc32)C1 [C-28] | 2.36 | > 5 | 0.452 |
| COC1CCC(N2CC(=O)Nc3ncc(-c4ccc(C(C)(C)O)nc4)nc32)C1 (stereo not drawn) [C-29] | 2.13 | > 5 | 0.235 |
| Cc1cc(-c2nnc[nH]2)ncc1-c1cnc2c(n1)N(CC1CCOCC1)C(C)(C)C(=O)N2 [C-30] | 0.005 | 0.021 | 0.001 |
| Cc1cc(-c2nnc[nH]2)ccc1-c1cnc2c(n1)N(Cc1ccccc1)C(=O)CN2 [C-31] | 0.014 | > 5 | 0.002 |
| COCCN1CC(=O)Nc2ncc(-c3ccc(-c4nnc[nH]4)c(F)c3C)nc21 [C-32] | 0.059 | 0.169 | 0.012 |
| Cc1c(-c2cnc3c(n2)N(CCC2CCOCC2)CC(=O)N3)ccc(-c2nnc[nH]2)c1F [C-34] | 1.52 | > 5 | 0.021 |
| Cc1cc(-c2cnc3c(n2)N(CC2CCOCC2)C(=O)CN3)cc2[nH]c(=O)[nH]c12 [C-38] | 3.25 | > 5 | 5 |

| Compound | IC50 (Phospho-PRAS40(T246)) [µM] | IC50 (Phospho-GSK3β(S9)) [µM] | IC50 (p70S6K) [µM] |
| --- | --- | --- | --- |
| CNc1nc2c(C)cc(-c3cnc4c(n3)N(CCOC)C(=O)CN4)cc2[nH]1 [C-39] | 1.41 | > 5 | 0.283 |
| O=C1CN(CCC2CCOCC2)c2nc(-c3ccc4[nH]ccc4c3)cnc2N1 [C-40] | > 5 | > 5 | 1.52 |
| O=C1CN(CCC2CCOCC2)c2nc(-c3ccc4cc[nH]c4c3)cnc2N1 [C-41] | 5 | 3.18 | 0.746 |
| COC1CCC(CN2C(=O)CNc3ncc(-c4ccc(C(C)(C)O)nc4)nc32)CC1 (stereo not drawn) [C-42] | 0.044 | 0.268 | 0.016 |
| COCCn1c(=O)[nH]c2ncc(-c3cnc4[nH]ccc4c3)nc21 [C-43] | 0.524 | 0.214 | 0.201 |
| O=C1CN(CCC2CCOCC2)c2nc(-c3cnc4[nH]ccc4c3)cnc2N1 [C-44] | 0.098 | 0.313 | 0.017 |
| CC(C)(O)c1ccc(-c2cnc3c(n2)N(C2CCOCC2)C(=O)CN3)cn1 [C-47] | 1.47 | 3.11 | 0.497 |
| COC1CCC(N2C(=O)CNc3ncc(-c4ccc(C(C)(C)O)cc4)nc32)CC1 (stereo not drawn) [C-48] | 0.415 | 0.502 | 0.08 |
| O=C1CNc2ncc(-c3ccc4cc[nH]c4c3)nc2N1CCC1CCOCC1 [C-49] | 1.99 | 3.84 | 0.468 |
| CO[C@H]1CC[C@H](N2CC(=O)Nc3ncc(-c4ccc(-c5nnc[nH]5)nc4C)nc32)C1 [C-50] | > 0.5 | > 0.5 | 0.048 |
| COC1CCC(N2CC(=O)Nc3ncc(-c4ccc(-c5nnc[nH]5)nc4C)nc32)C1 (stereo not drawn) [C-51] | 0.816 | 0.859 | 0.046 |
| COC1CCC(N2CC(=O)Nc3ncc(-c4ccc(-c5nnc[nH]5)nc4C)nc32)C1 (stereo not drawn) [C-52] | 0.96 | 1.1 | 0.088 |
| COC1CCC(N2CC(=O)Nc3ncc(-c4ccc(-c5nnc[nH]5)nc4C)nc32)C1 (stereo not drawn) [C-53] | 1.16 | 1.14 | 0.232 |
| O=C1CNc2ncc(-c3ccc4[nH]ccc4c3)nc2N1CCC1CCOCC1 [C-55] | 0.228 | 0.341 | 0.025 |
| CO[C@H]1CC[C@H](N2C(=O)CNc3ncc(-c4ccc(-c5nnc[nH]5)nc4C)nc32)C1 [C-56] | 0.113 | 0.269 | 0.045 |
| CO[C@H]1CC[C@@H](N2C(=O)CNc3ncc(-c4ccc(-c5nnc[nH]5)nc4C)nc32)C1 [C-57] | 0.123 | 0.17 | 0.006 |
| CO[C@@H]1CC[C@@H](N2C(=O)CNc3ncc(-c4ccc(-c5nnc[nH]5)nc4C)nc32)C1 [C-58] | 0.209 | 0.507 | 0.048 |
| COC1CCC(N2C(=O)CNc3ncc(-c4ccc(-c5nnc[nH]5)nc4C)nc32)C1 (stereo not drawn) [C-59] | 0.099 | 0.126 | 0.028 |
